Like-named read-outs stand apart in the source and are kept apart here.
Experiments:
Type in all cases: cell-based
MIA PaCa-2 cells = experiment: MIA PaCa-2 cell proliferation assay (CellTiter-Glo); conditions: 72 h incubation, read-out: IC50 (nM), inhibitory activity against MIA PaCa-2 cell proliferation
Description: The inhibitory activity of the compounds of the present disclosure against MIA PaCa-2 cell proliferation was measured. Below is a brief description of the experimental method:
MIA PaCa-2 cells (ATCC, CRL-1420) were cultured in DMEM/HIGH GLUCOSE medium (GE, SH30243.01) containing 10% fetal bovine serum (Corning, 35-076-CV) and 2.5% horse serum (Beyotime Biological Tech., C0262) (i.e., complete medium). On the first day of the experiment, MIA PaCa-2 cells were seeded into a 96-well plate at a density of 500 cells/well using complete medium, with 90 µL of cell suspension per well, and the plate was incubated overnight in a 37° C., 5% CO2 cell incubator. On the second day, the test compounds, prepared in complete medium and serially diluted, were added at 10 μL/well. The final concentrations of the compounds were 9 concentration points obtained by a 5-fold serial dilution from 10 μM. A blank control containing 0.5% DMSO was set up. The plate was incubated for 72 h in a 37° C., 5% CO2 cell incubator. On the fifth day, the 96-well cell plate was removed from the incubator, and CellTiter-Glo® Luminescent Cell Viability Assay (Promega, G7573) was added at 50 μL/well. After 10 min of room temperature incubation, luminescence signals were measured using a multifunctional microplate reader (PerkinElmer, EnVision2015). The IC50 values for the inhibitory activity of the compounds were calculated using Graphpad Prism software.

H358 cells = experiment: H358 proliferation assay (CellTiter-Glo); conditions: 120 h incubation, read-out: IC50 (nM), inhibitory activity against H358 cell proliferation
Description: The inhibitory activity of the compounds of the present disclosure against H358 cell proliferation was measured. Below is a brief description of the experimental method: H358 cells (ATCC, CRL-5807) were cultured in RPMI1640 medium (Hyclone, SH30809.01) containing 10% fetal bovine serum (Corning, 35-076-CV) (i.e., complete medium). On the first day of the experiment, H358 cells were seeded into a 96-well plate at a density of 1200 cells/well using complete medium, with 100 μL of cell suspension per well, and the plate was incubated overnight in a 37° C., 5% CO2 cell incubator. On the second day, the test compounds, prepared in complete medium and serially diluted, were added at 10 μL/well. The final concentrations of the compounds were 9 concentration points obtained by a 5-fold serial dilution from 10 μM. A blank control containing 0.5% DMSO was set up. The plate was incubated for 120 h in a 37° C., 5% CO2 cell incubator. On the seventh day, the 96-well cell plate was removed from the incubator, and CellTiter-Glo® Luminescent Cell Viability Assay (Promega, G7573) was added at 50 μL/well. After 10 min of room temperature incubation, luminescence signals were measured using a multifunctional microplate reader (PerkinElmer, EnVision® 2105). The IC50 values for the inhibitory activity of the compounds were calculated using Graphpad Prism software.

[1] = test system: ERK phosphorylation in H358 cells; experiment: H358 cell ERK phosphorylation inhibition assay (HTRF pERK/total ERK); conditions: 3 h incubation, ratio of pERK/total ERK, read-out: IC50 (nM), inhibitory effects on ERK phosphorylation in H358 cells
Description: The inhibitory effects of the compounds of the present disclosure on ERK phosphorylation in H358 cells were measured. Below is a brief description of the experimental method: H358 cells (ATCC, CRL-5807) were cultured in RPMI1640 medium (Hyclone, SH30809.01) containing 10% fetal bovine serum (Corning, 35-076-CV) (i.e., complete medium). On the first day of the experiment, H358 cells were seeded into a 96-well plate at a density of 25,000 cells/well using complete medium, with 190 μL of cell suspension per well, and the plate was incubated overnight in a 37° C., 5% CO2 cell incubator. On the second day, the test compounds, prepared in complete medium and serially diluted, were added at 10 μL/well. The final concentrations of the compounds were 9 concentration points obtained by a 6-fold serial dilution from 10 μM. A blank control containing 0.5% DMSO was set up. The plate was incubated for 3 h in a 37° C., 5% CO2 cell incubator. After 3 h, the 96-well cell culture plate was removed from the incubator, and the culture medium was pipetted off. PBS (Shanghai BasalMedia Technologies Co., Ltd., B320) was added at 200 μL/well for a single wash. PBS was pipetted off, and lysis buffer (Cisbio, 64KL1FDF) containing a blocking agent (Cisbio, 64KB1AAC) was added at 50 μL/well. The plate was incubated on a shaker for 30 min at room temperature to lyse the cells. After lysis, the lysates were well mixed by pipetting, and 16 μL of lysate was transferred from each well to two HTRF 96-well assay plates (Cisbio, 66PL96100). Subsequently, 4 μL of a premixed phospho-ERK1/2 antibody solution (Cisbio, 64AERPEG) or 4 μL of a premixed total-ERK1/2 antibody solution (Cisbio, 64NRKPEG) was added to each of the plates. The plates were sealed with a plate sealer film, centrifuged for 1 min in a microplate centrifuge, and incubated overnight at room temperature in the dark. On the third day, fluorescence values at an excitation wavelength of 337 nm and emission wavelengths of 665 nm and 620 nm were measured using a PHERAstar multifunctional microplate reader (BMG Labtech, PHERAstar FS). The IC50 values for the inhibitory activity of the compounds were calculated using Graphpad Prism software, based on the compound concentration and the ratio of pERK/total ERK.

Row | SMILES | IC50 (MIA PaCa-2 cells) | IC50 (H358 cells) | IC50 [1] | IC50 (H358 cells; Homo sapiens, NCI-H358, 120 h) | IC50 (MIA PaCa-2 cells; Homo sapiens, MIA PaCa-2, 72 h) | IC50 ([1]; Homo sapiens, NCI-H358, 3 h)
1 | C=CC(=O)N1CCN2C(=O)c3cc(F)c(-c4ccc(F)c5sc(N)c(C#N)c45)c4cnn(c34)CC[C@H]2C1 (atropisomer, axis not shown) [Example 1-P1, (R)-4-((S)-10-Acryloyl-2-fluoro-14-oxo-8,8a,9,10,11,12-hexahydro-7H,14H-pyrazino[1′,2′:5,6][1,5]diazocino[3,2,1-hi]indazol-3-yl)-2-amino-7-fluorobenzo[b]thiophene-3-carbonitrile] | 2.79 nM | 12 nM | 1.33 nM |  |  | 
2 | C=C(F)C(=O)N1CCN2C(=O)c3cc(F)c(-c4ccc(F)c5sc(N)c(C#N)c45)c4cnn(c34)CC[C@H]2C1 (atropisomer, axis not shown) [Example 6-P1, (R)-2-Amino-7-fluoro-4-((S)-2-fluoro-10-(2-fluoroacryloyl)-14-oxo-8,8a,9,10,11,12-hexahydro-7H,14H-pyrazino[1′,2′:5,6][1,5]diazocino[3,2,1-hi]indazol-3-yl)benzo[b]thiophene-3-carbonitrile] | 13.9 nM | 9.75 nM | 1.45 nM |  |  | 
3 | C=C(F)C(=O)N1CCN2C(=O)c3cc(F)c(-c4ccc(F)c5sc(N)c(C#N)c45)c4cnn(c34)CC[C@H]2C1 (atropisomer, axis not shown) [Example 6-P2, (S)-2-Amino-7-fluoro-4-((S)-2-fluoro-10-(2-fluoroacryloyl)-14-oxo-8,8a,9,10,11,12-hexahydro-7H,14H-pyrazino[1′,2′:5,6][1,5]diazocino[3,2,1-hi]indazol-3-yl)benzo[b]thiophene-3-carbonitrile] | 5.39 nM |  | 0.35 nM | 5.73 nM |  | 
4 | C=CC(=O)N1CCN2C(=O)c3cc(F)c(-c4ccc(F)c5sc(N)nc45)c4ccn(c34)CC[C@H]2C1 [Example 3, (8aS)-10-Acryloyl-3-(-2-amino-7-fluorobenzo[d]thiazol-4-yl)-2-fluoro-8,8a,9,10,11,12-hexahydro-7H,14H-pyrazino[1′,2′:5,6][1,5]diazocino[3,2,1-hi]indol-14-one] |  |  |  |  |  | 23.7 nM
5 | C=C(F)C(=O)N1CCN2C(=O)c3cc(F)c(-c4ccc(F)c5sc(N)c(C#N)c45)c4ccn(c34)CC[C@H]2C1 [Example 5, 2-Amino-7-fluoro-4-((S)-2-fluoro-10-(2-fluoroacryloyl)-14-oxo-8,8a,9,10,11,12-hexahydro-7H,14H-pyrazino[1′,2′:5,6][1,5]diazocino[3,2,1-hi]indol-3-yl)benzo[b]thiophene-3-carbonitrile] |  |  |  |  |  | 36.2 nM
6 | C=CC(=O)N1CCN2C(=O)c3cc(F)c(-c4ccc(F)c5sc(N)c(C#N)c45)c4cnn(c34)C[C@H]2C1 [Example 14, 4-((R)-10-Acryloyl-4-fluoro-6-oxo-8,9,10,11,11a,12-hexahydro-6H-pyrazino[2′,1′:3,4][1,4]diazepino[6,7,1-hi]indazol-3-yl)-2-amino-7-fluorobenzo[b]thiophene-3-carbonitrile] |  |  |  |  | 39.6 nM | 1.35 nM

Second part, the molecule after the results:

Row | IC50 (MIA PaCa-2 cells) | IC50 (H358 cells) | IC50 [1] | IC50 (H358 cells; Homo sapiens, NCI-H358, 120 h) | IC50 (MIA PaCa-2 cells; Homo sapiens, MIA PaCa-2, 72 h) | IC50 ([1]; Homo sapiens, NCI-H358, 3 h) | SMILES
7 | 0.4 nM | 0.93 nM | 0.07 nM |  |  |  | C=CC(=O)N1CCN2C(=O)c3cc(F)c(-c4ccc(F)c5sc(N)c(C#N)c45)c4cnn(c34)CC[C@H]2C1 (atropisomer, axis not shown) [Example 1-P2, (S)-4-((S)-10-Acryloyl-2-fluoro-14-oxo-8,8a,9,10,11,12-hexahydro-7H,14H-pyrazino[1′,2′:5,6][1,5]diazocino[3,2,1-hi]indazol-3-yl)-2-amino-7-fluorobenzo[b]thiophene-3-carbonitrile]
8 |  |  |  | 0.74 nM | 0.28 nM | 0.13 nM | C=CC(=O)N1CCN2C(=O)c3cc(F)c(-c4ccc(F)c5sc(N)c(C#N)c45)c4c(Cl)nn(c34)CC[C@H]2C1 (atropisomer, axis not shown) [Example 7-P2, (S)-4-((S)-10-Acryloyl-4-chloro-2-fluoro-14-oxo-8,8a,9,10,11,12-hexahydro-7H,14H-pyrazino[1′,2′:5,6][1,5]diazocino[3,2,1-hi]indazol-3-yl)-2-amino-7-fluorobenzo[b]thiophene-3-carbonitrile]
9 |  |  |  | 0.84 nM | 0.19 nM | 0.16 nM | C=CC(=O)N1CCN2C(=O)c3cc(F)c(-c4ccc(F)c5sc(N)c(C#N)c45)c4c(F)nn(c34)CC[C@H]2C1 (atropisomer, axis not shown) [Example 8-P2, (S)-4-((S)-10-Acryloyl-2,4-difluoro-14-oxo-8,8a,9,10,11,12-hexahydro-7H,14H-pyrazino[1′,2′:5][1,5]diazocino[3,2,1-hi]indazol-3-yl)-2-amino-7-fluorobenzo[b]thiophene-3-carbonitrile]
10 |  |  | 32.5 nM |  |  |  | C=CC(=O)N1CCN2C(=O)c3cc(F)c(-c4ccc(F)c5sc(N)c(C#N)c45)c4c(C)nn(c34)CC[C@H]2C1 (atropisomer, axis not shown) [Example 9-P1, (R)-4-((S)-10-Acryloyl-2-fluoro-4-methyl-14-oxo-8,8a,9,10,11,12-hexahydro-7H,14H-pyrazino[1′,2′:5,6][1,5]diazocino[3,2,1-hi]indazol-3-yl)-2-amino-7-fluorobenzo[b]thiophene-3-carbonitrile]
11 |  |  | 0.06 nM | 0.52 nM | 0.37 nM |  | C=CC(=O)N1CCN2C(=O)c3cc(F)c(-c4ccc(F)c5sc(N)c(C#N)c45)c4c(C)nn(c34)CC[C@H]2C1 (atropisomer, axis not shown) [Example 9-P2, (S)-4-((S)-10-Acryloyl-2-fluoro-4-methyl-14-oxo-8,8a,9,10,11,12-hexahydro-7H,14H-pyrazino[1′,2′:5,6][1,5]diazocino[3,2,1-hi]indazol-3-yl)-2-amino-7-fluorobenzo[b]thiophene-3-carbonitrile]
12 |  |  |  |  | 35.3 nM | 11.3 nM | C=CC(=O)N1CCN2C(=O)c3cc(F)c(-c4ccc(F)c5sc(N)c(C#N)c45)c4cnn(c34)CC[C@@H]2C1 (atropisomer, axis not shown) [Example 12-P2, (S)-4-((R)-10-Acryloyl-2-fluoro-14-oxo-8,8a,9,10,11,12-hexahydro-7H,14H-pyrazino[1′,2′:5,6][1,5]diazocino[3,2,1-hi]indazol-3-yl)-2-amino-7-fluorobenzo[b]thiophene-3-carbonitrile]

From patent US20250122211A1, “NITROGEN-CONTAINING TETRACYCLIC COMPOUND, PREPARATION METHOD THEREFOR, AND MEDICAL USE THEREOF” (Jiangsu Hengrui Pharmaceuticals Co., Ltd., priority 2021, published 2025)
